According to patent US9376418B2, “Substituted pyridine spleen tyrosine kinase (SYK) inhibitors” (Merck Sharp & Dohme Corp., priority 2012, dated 2016):

Target: T1, recombinant human GST-SYK (Homo sapiens, UniProt P43405)
T1 construct: purchased Carna Biosciences 08-176
Assay: Homogeneous Time-Resolved Fluorescence (HTRF) assay for the recombinant human Syk enzyme
Format: biochemical
Conditions: HTRF assay, recombinant human GST-SYK; IC50 given as class symbols; read-out: rhSYK Activity
Procedure: Homogeneous Time-Resolved Fluorescence (HTRF) Assay for the Recombinant Human Syk Enzyme
A recombinant GST-hSYK fusion protein was used to measure potency of compounds to inhibit human Syk activity. The recombinant human GST-SYK (Carna Biosciences #08-176) ([…]) was incubated with various concentrations of the inhibitor diluted in DMSO (0.1% final concentration) for 10 minutes at room temperature in 15 mM Tris-HCl (pH 7.5), 0.01% tween 20, 2 mM DTT in 384 well plate format. To initiate the reaction the biotinylated substrate peptide (250 nM final concentration) that contains the phosphorylation site for Syk was added with magnesium (5 mM final concentration) and ATP (25 μM final concentration). Final volume of the reaction was 10 μL. Phosphorylation of the peptide was allowed to proceed for 45′ at room temperature. To quench the reaction and detect the phosphorylated product, 2 nM of a Europium-anti-phosphotyrosine antibody (Perkin Elmer #AD0161) and 70 nM SA-APC (Perkin-Elmer #CR130-100) were added together in 15 mM Tris pH 7.5, 40 mM EDTA, 0.01% tween 20. Final volume of the quenching solution was 10 μL. The resulting HTRF signal was measured after 30 minutes on an EnVision (Perkin-Elmer) reader using a time-resolved fluorescence protocol.

Compared with CCOC(=O)CCc1cc(-c2cc(C)cc(Nc3nccc(C)n3)c2)ccn1 [Example 2.134, ethyl 3-(4-{3-methyl-5-[(4-methylpyrimidin-2-yl)amino]phenyl}pyridin-2-yl)propanoate], CCOC(=O)CCc1cccc(-c2cc(C)cc(Nc3nccc(C)n3)c2)n1 [Example 2.32, ethyl 3-(6-{3-methyl-5-[(4-methylpyrimidin-2-yl)amino]phenyl}pyridin-2-yl)propanoate] is higher in IC50: 100 to 1000 nM for the first, 1000 to 10000 nM for the second. The first is the more potent here.

Compared with Cc1cc(Nc2nccc(C(F)(F)F)n2)cc(-c2ccc(F)nc2)c1 [Example 4.4, N-[3-(6-fluoropyridin-3-yl)-5-methylphenyl]-4-(trifluoromethyl)pyrimidin-2-amine], Cc1cc(Nc2nccc(C(F)(F)F)n2)cc(-c2ccc(C#N)nc2)c1 [Example 2.46, 5-(3-methyl-5-{[4-(trifluoromethyl)pyrimidin-2-yl]amino}phenyl)pyridine-2-carbonitrile] is lower in IC50: 100 to 1000 nM for the first, < 100 nM for the second. The second is the more potent here.

Cc1cc(Nc2nccc(C(F)(F)F)n2)cc(-c2ccc(C3(O)CCC(C(=O)O)C(C)(C)C3)nc2)c1 (stereo not shown) [Example 9.46, 4-hydroxy-2,2-dimethyl-4-[5-(3-methyl-5-{[4-(trifluoromethyl)pyrimidin-2-yl]amino}phenyl)pyridin-2-yl]cyclohexanecarboxylic acid] and Cc1cc(Nc2nccc(C(F)(F)F)n2)cc(-c2ccc(C3(O)CCC(=O)CC3)nc2)c1 [Example 9.54, 4-hydroxy-4-[5-(3-methyl-5-{[4-(trifluoromethyl)pyrimidin-2-yl]amino}phenyl)pyridin-2-yl]cyclohexanone] cannot be ordered by IC50: < 100 nM for the first, < 100 nM for the second.

Compared with Cc1cc(Nc2nccc(C(F)(F)F)n2)cc(-c2ccc(C(C)(O)c3ccc(C(N)=O)cc3)nc2)c1 (stereo not shown) [Example 12.4, 4-{1-hydroxy-1-[5-(3-methyl-5-{[4-(trifluoromethyl)pyrimidin-2-yl]amino}phenyl)pyridin-2-yl]ethyl}benzamide], Cc1cc(Nc2nccc(C(F)(F)F)n2)cc(-c2ccc(Oc3ccc(C(N)=O)cc3)nc2)c1 [Example 12.3, 4-{[5-(3-Methyl-5-{[4-(trifluoromethyl)pyrimidin-2-yl]amino}phenyl)pyridin-2-yl]oxy}benzamide] is higher in IC50: < 100 nM for the first, 100 to 1000 nM for the second.

Cc1cc(Nc2nccc(C(F)(F)F)n2)cc(-c2ccc(N3CCC3C(=O)O)nc2)c1 (stereo not shown) [Example 7.82, 1-[5-(3-methyl-5-{[4-(trifluoromethyl)pyrimidin-2-yl]amino}phenyl)pyridin-2-yl]azetidine-2-carboxylic acid] and Cc1cc(Nc2nccc(C(F)(F)F)n2)cc(-c2ccc(N(C)CC(=O)O)nc2)c1 [Example 7.39, N-methyl-N-[5-(3-methyl-5-{[4-(trifluoromethyl)pyrimidin-2-yl]amino}phenyl)pyridin-2-yl]glycine] cannot be ordered by IC50: < 100 nM for the first, < 100 nM for the second.

Cc1cc(Nc2nccc(C(F)(F)F)n2)cc(-c2cncc(C(C)(O)CO)c2)c1 (stereo not shown) [Example 9.68, 2-[5-(3-methyl-5-{[4-(trifluoromethyl)pyrimidin-2-yl]amino}phenyl)pyridin-3-yl]propane-1,2-diol] and Cc1cc(Nc2nccc(C(F)(F)F)n2)cc(-c2cncc(C#N)c2)c1 [Example 2.56, 5-(3-methyl-5-{[4-(trifluoromethyl)pyrimidin-2-yl]amino}phenyl)pyridine-3-carbonitrile] cannot be ordered by IC50: < 100 nM for the first, < 100 nM for the second.

First: Cc1cc(Nc2nccc(C(F)(F)F)n2)cc(-c2ccc(NCCCO)nc2)c1 [Example 7.113, 3-{[5-(3-methyl-5-{[4-(trifluoromethyl)pyrimidin-2-yl]amino}phenyl)pyridin-2-yl]amino}propan-1-ol]
Second: Cc1cc(Nc2nccc(C(F)(F)F)n2)cc(-c2ccc(NC(C)(C)CO)nc2)c1 [Example 7.35, 2-methyl-2-{[5-(3-methyl-5-{[4-(trifluoromethyl)pyrimidin-2-yl]amino}phenyl)pyridin-2-yl]amino}propan-1-ol]
The IC50 of the first is lower: < 100 nM for the first, 100 to 1000 nM for the second.

Cc1cc(Nc2nccc(C(F)(F)F)n2)cc(-c2cccnc2)c1 [Example 2.57, N-(3-methyl-5-pyridin-3-ylphenyl)-4-(trifluoromethyl)pyrimidin-2-amine] and Cc1cc(Nc2nccc(C(F)(F)F)n2)cc(-c2ccc(NC3CCNC3=O)nc2)c1 (stereo not shown) [Example 7.157, 3-{[5-(3-methyl-5-{[4-(trifluoromethyl)pyrimidin-2-yl]amino}phenyl)pyridin-2-yl]amino}pyrrolidin-2-one] cannot be ordered by IC50: < 100 nM for the first, < 100 nM for the second.

First: Cc1cc(Nc2nccc(C(F)(F)F)n2)cc(-c2ccnc(NCc3cncn3C)c2)c1 [Example 15.38, N-[3-methyl-5-(2-{[(1-methyl-1H-imidazol-5-yl)methyl]amino}pyridin-4-yl)phenyl]-4-(trifluoromethyl)pyrimidin-2-amine]
Second: Cc1cc(Nc2nccc(C(F)(F)F)n2)cc(-c2ccnc(NC3(CO)CC3)c2)c1 [Example 15.56, (1-{[4-(3-methyl-5-{[4-(trifluoromethyl)pyrimidin-2-yl]amino}phenyl)pyridin-2-yl]amino}cyclopropyl)methanol]
The IC50 of the first is higher: 100 to 1000 nM for the first, < 100 nM for the second.

Cc1cc(Nc2nccc(C(F)(F)F)n2)cc(-c2ccc(N[C@H]3CC[C@@H](C(=O)O)CC3)nc2)c1 [Example 7.142, cis-4-{[5-(3-methyl-5-{[4-(trifluoromethyl)pyrimidin-2-yl]amino}phenyl)pyridin-2-yl]amino}cyclohexanecarboxylic acid] and Cc1cc(Nc2nccc(C(F)(F)F)n2)cc(-c2ccc(NC3CCNC3=O)nc2)c1 (stereo not shown) [Example 7.68, 3-{[5-(3-methyl-5-{[4-(trifluoromethyl)pyrimidin-2-yl]amino}phenyl)pyridin-2-yl]amino}pyrrolidin-2-one] cannot be ordered by IC50: < 100 nM for the first, < 100 nM for the second.

CCOC(=O)Cc1ccc(-c2cccc(Nc3nccc(C(F)(F)F)n3)c2)nc1 [Example 2.5, ethyl [6-(3-{[4-(trifluoromethyl)pyrimidin-2-yl]amino}phenyl)pyridin-3-yl]acetate] and O=C(O)CCc1ccc(-c2cccc(Nc3nccc(C(F)(F)F)n3)c2)nc1 [Example 2.16, 3-[6-(3-{[4-(trifluoromethyl)pyrimidin-2-yl]amino}phenyl)pyridin-3-yl]propanoic acid] fall in the same range of IC50: 100 to 1000 nM for the first, 100 to 1000 nM for the second.

First: Cc1cc(Nc2nccc(C(F)(F)F)n2)cc(-c2ccc(NC(C)(C#N)C(C)(C)C)nc2)c1 (stereo not shown) [Example 7.115, 2,3,3-trimethyl-2-{[5-(3-methyl-5-{[4-(trifluoromethyl)pyrimidin-2-yl]amino}phenyl)pyridin-2-yl]amino}butanenitrile]
Second: Cc1cc(Nc2nccc(C(F)(F)F)n2)cc(-c2ccc(CC(F)(F)C(=O)O)nc2)c1 [Example 24.3, 2,2-Difluoro-3-[5-(3-methyl-5-{[4-(trifluoromethyl)pyrimidin-2-yl]amino}phenyl)pyridin-2-yl]propanoic acid]
The IC50 of the first is higher: 100 to 1000 nM for the first, < 100 nM for the second.

Compared with OC1(c2cccc(-c3cc(Nc4nccc(C(F)(F)F)n4)cc(N4CCOCC4)c3)n2)CCC1 [Example 1.1, 1-{6-[3-(Morpholin-4-yl)-5-{[4-(trifluoromethyl)pyrimidin-2-yl]amino}phenyl]pyridin-2-yl}cyclobutanol], Cc1cc(Nc2nccc(C(F)(F)F)n2)cc(-c2cncc(C3(O)CCNCC3)c2)c1 [Example 9.7, 4-[5-(3-Methyl-5-{[4-(trifluoromethyl)pyrimidin-2-yl]amino}phenyl)pyridin-3-yl]piperidin-4-ol] is lower in IC50: 100 to 1000 nM for the first, < 100 nM for the second.

Cc1cc(Nc2nccc(C(F)(F)F)n2)cc(-c2ccc(C(=O)NCCS(C)(=O)=O)nc2)c1 [Example 16.64, N-[2-(methylsulfonyl)ethyl]-5-(3-methyl-5-{[4-(trifluoromethyl)pyrimidin-2-yl]amino}phenyl)pyridine-2-carboxamide] and Cc1cc(Nc2nccc(C(F)(F)F)n2)cc(-c2ccc(C(=O)N(C)CC3COCCO3)nc2)c1 (stereo not shown) [Example 16.38, N-(1,4-dioxan-2-ylmethyl)-N-methyl-5-(3-methyl-5-{[4-(trifluoromethyl)pyrimidin-2-yl]amino}phenyl)pyridine-2-carboxamide] fall in the same range of IC50: 100 to 1000 nM for the first, 100 to 1000 nM for the second.

First: Cc1cc(Nc2nccc(C(F)(F)F)n2)cc(-c2ccc(C(=O)N(C)C(C3CC3)C3CC3)nc2)c1 [Example 16.36, N-(dicyclopropylmethyl)-N-methyl-5-(3-methyl-5-{[4-(trifluoromethyl)pyrimidin-2-yl]amino}phenyl)pyridine-2-carboxamide]
Second: Cc1cc(Nc2nccc(C(F)(F)F)n2)cc(-c2cnc(N(C)C)c(C(=O)O)c2)c1 [Example 2.72, 2-(dimethylamino)-5-(3-methyl-5-{[4-(trifluoromethyl)pyrimidin-2-yl]amino}phenyl)pyridine-3-carboxylic acid]
The IC50 of the first is higher: 100 to 1000 nM for the first, < 100 nM for the second.

First: Cc1cc(Nc2nccc(C(F)(F)F)n2)cc(-c2ccc(-c3noc(=O)[nH]3)nc2)c1 [Example 18.11]
Second: Cc1cc(Nc2nccc(C(F)(F)F)n2)cc(-c2ccnc(NC3COC3)c2)c1 [Example 15.62, N-{3-methyl-5-[2-(oxetan-3-ylamino)pyridin-4-yl]phenyl}-4-(trifluoromethyl)pyrimidin-2-amine]
The IC50 of the first is lower: < 100 nM for the first, 100 to 1000 nM for the second.

With CC(=O)Nc1cc(Nc2nccc(C(F)(F)F)n2)cc(-c2ccc(N3CCNC(=O)CC3)nc2)c1 [Example 7.4, N-(3-[6-(5-oxo-1,4-diazepan-1-yl)pyridin-3-yl]-5-{[4-(trifluoromethyl)pyrimidin-2-yl]amino}phenyl)acetamide] the IC50 was < 100 nM.

Same assay, conditions: recombinant GST-hSYK, 25 μM ATP, HTRF; read-out: IC50 (inhibition of human Syk activity)

Work on OC1(c2cccc(-c3cc(Nc4nccc(C(F)(F)F)n4)cc(N4CCOCC4)c3)n2)CCC1 [Example 1.1, 1-{6-[3-(Morpholin-4-yl)-5-{[4-(trifluoromethyl)pyrimidin-2-yl]amino}phenyl]pyridin-2-yl}cyclobutanol] yielded an IC50 of 144 nM.
